Counter-ions that a name gives are not always drawn. Like-named read-outs stand apart in the source and are kept apart here.
Experiments:
Acetylcholinesterase = molecular target: T1, Acetylcholinesterase (Rattus norvegicus, UniProt P37136); experiment: in vitro inhibition of acetylcholinesterase assay; assay type: biochemical, rat (male Wistar, corpora striata)
T1 construct: corpora striata dissected free, weighted and homogenized in 19 volumes; from tissue; host or cells: male Wistar rat corpora striata, homogenate
T1 sequence (P37136 32-614): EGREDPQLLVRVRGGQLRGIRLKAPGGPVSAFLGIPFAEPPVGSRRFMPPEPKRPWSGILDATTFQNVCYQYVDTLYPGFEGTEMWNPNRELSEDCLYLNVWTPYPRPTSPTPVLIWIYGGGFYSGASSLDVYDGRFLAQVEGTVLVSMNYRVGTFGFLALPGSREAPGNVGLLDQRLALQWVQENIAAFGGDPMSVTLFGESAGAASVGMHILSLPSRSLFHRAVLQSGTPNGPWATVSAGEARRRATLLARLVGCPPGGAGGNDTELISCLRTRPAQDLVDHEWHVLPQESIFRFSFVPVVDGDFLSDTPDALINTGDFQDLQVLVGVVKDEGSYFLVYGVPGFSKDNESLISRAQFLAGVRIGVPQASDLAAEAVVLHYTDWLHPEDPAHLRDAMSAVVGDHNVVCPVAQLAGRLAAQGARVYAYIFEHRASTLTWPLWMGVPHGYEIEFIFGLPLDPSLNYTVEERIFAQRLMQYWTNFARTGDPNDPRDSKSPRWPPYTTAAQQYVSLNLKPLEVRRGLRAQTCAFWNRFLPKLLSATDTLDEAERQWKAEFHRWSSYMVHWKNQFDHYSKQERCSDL
Protocol: 1. 0.05M Phosphate Buffer (pH 7.2)
A solution of monobasic sodium phosphate monohydrate (6.85 g) in distilled water (100 mL) is added to a solution of dibasic sodium phosphate heptahydrate (13.4 g) and distilled water (100 mL) until a pH of 7.2 was attained. The solution was diluted 1 to 10 with distilled water.
3. 5,5-Dithiobisnitrobenzoic acid in Buffer
The 0.05M Phosphate Buffer (pH 7.2) was added to 5.5-dithiobisnitrobenzoic acid to a total volume of 100 mL. i.e., a quantity sufficient (gs) to 100 mL.
4. Stock Solution of Drug
A 2 millimolar stock solution of the test drug is prepared in a quantity sufficient of either acetic acid or dimethyl sulfoxide to volume with 5,5-Dithiobisnitrobenzene Acid in Buffer. Stock Solution of Drug is serially diluted (1:10) so that the final cuvette concentration is 10^-4 molar.
Male Wistar rats are decapitated, brains rapidly removed, corpora striata dissected free, weighted and homogenized in 19 volumes (approximately 7 mg protein/mL) of 0.05M phosphate Buffer (pH 7.2) using a Potter-Elvehjem homogenizer. A 25 μl aliquot of this suspension is added to 1 mL of the vehicle or various concentrations of the test drug and preincubated for 10 minutes at 37° C. Enzyme activity is measured with a Beckman DU-50 spectrophotometer with the following software and instrument settings:
6. Cuvettes--2 mL cuvettes using auto 6-sampler;
7. Blank--1 for each substrate concentration;
8. Interval time--15 seconds (15 or 30 seconds for kinetics);
9. Total time--5 minutes (5 to 10 minutes for kinetics);
13. Results--yes (gives slope); and
Reagents are added to the blank and sample cuvettes as follows: […]
Blank 0.8 mL 5.5-Dithiobisnitrobenzoic Acid
0.8 mL Substrate in Buffer
2. Control 0.8 mL 5.5-Dithiobisnitrobenzoic Acid/Enzyme
3. Drug 0.8 mL 5.5-Dithiobisnitrobenzoic Acid/Drug/Enzyme
Blank values are determined for each run to control for non-enzymatic hydrolysis of substrate and these values are automatically subtracted by the Kindata program available on kinetics soft-pac module. This program also calculates the rate of absorbance change for each cuvette.
Substrate concentration is 10 millimolar diluted 1:2 in assay yielding final concentration of 5 millimolar. 5,5-Dithiobisnitrobenzoic acid concentration is 0.5 millimolar yielding 0.25 millimolar final concentration. [formula]
IC50 values are calculated from log-probit analysis

Monoamine Oxidase B = molecular target: T2, Monoamine Oxidase B (Rattus norvegicus, UniProt P19643); experiment: in vitro inhibition of monoamine oxidase assay (monoamine oxidase B); assay type: biochemical, rat (male Wistar, whole brain minus cerebellum); settings: rat brain mitochondria, [14C]-phenethylamine 200 μM, pH 7.4, 37° C., 30 min; log-probit
T2 construct: serves as the tissue source for mitochondrial monoamine oxidase; from tissue; host or cells: male Wistar rat whole brain minus cerebellum, 18,000 g pellet (P2)
T2 sequence (P19643 1-520): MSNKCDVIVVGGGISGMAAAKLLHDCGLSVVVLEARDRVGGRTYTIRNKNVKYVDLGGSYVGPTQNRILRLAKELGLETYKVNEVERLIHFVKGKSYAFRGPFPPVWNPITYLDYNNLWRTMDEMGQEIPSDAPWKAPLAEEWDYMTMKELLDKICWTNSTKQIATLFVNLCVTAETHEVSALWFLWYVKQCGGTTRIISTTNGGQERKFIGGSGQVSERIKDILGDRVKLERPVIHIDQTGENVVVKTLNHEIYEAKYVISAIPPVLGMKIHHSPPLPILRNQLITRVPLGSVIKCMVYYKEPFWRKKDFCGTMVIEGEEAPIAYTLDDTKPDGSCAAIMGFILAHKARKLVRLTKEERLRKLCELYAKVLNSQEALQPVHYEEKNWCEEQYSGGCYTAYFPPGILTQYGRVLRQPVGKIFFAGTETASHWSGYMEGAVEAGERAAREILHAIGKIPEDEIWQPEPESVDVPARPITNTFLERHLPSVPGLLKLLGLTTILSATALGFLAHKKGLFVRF
Description: (§1) In this assay, a modification of an assay described by M. V. Kindt, et al., Europ.
(§2) Male Wistar rats weighing 150-250 grams were sacrificed and the brains rapidly removed.

Monoamine Oxidase A = molecular target: T3, Monoamine Oxidase A (Rattus norvegicus, UniProt P21396); experiment: in vitro inhibition of monoamine oxidase assay (monoamine oxidase A); assay type: biochemical, rat (male Wistar, whole brain minus cerebellum); settings: rat brain mitochondria, [3H]-5-hydroxytryptamine 200 μM, pH 7.4, 37° C., 30 min; log-probit
T3 construct: serves as the tissue source for mitochondrial monoamine oxidase; from tissue; host or cells: male Wistar rat whole brain minus cerebellum, 18,000 g pellet (P2)
T3 sequence (P21396 1-526): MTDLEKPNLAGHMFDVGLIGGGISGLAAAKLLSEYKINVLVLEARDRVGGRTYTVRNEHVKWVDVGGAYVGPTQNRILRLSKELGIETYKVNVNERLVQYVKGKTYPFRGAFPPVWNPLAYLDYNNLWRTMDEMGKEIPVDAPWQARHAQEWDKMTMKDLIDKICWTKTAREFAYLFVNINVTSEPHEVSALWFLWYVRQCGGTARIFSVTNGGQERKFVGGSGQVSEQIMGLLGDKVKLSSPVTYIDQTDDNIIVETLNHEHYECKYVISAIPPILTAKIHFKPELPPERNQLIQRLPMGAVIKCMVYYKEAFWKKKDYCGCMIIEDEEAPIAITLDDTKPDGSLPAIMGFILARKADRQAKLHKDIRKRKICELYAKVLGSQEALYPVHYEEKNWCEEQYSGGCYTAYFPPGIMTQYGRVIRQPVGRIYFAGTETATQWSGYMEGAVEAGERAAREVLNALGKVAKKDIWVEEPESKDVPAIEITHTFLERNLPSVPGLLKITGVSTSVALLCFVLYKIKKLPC
Description: as §1, §2

In the case of `c1ccc(CCCn2ccc(=Nc3noc4ccccc34)cc2)cc1` [3-[1-(3-Phenylpropyl)-N-4(1H)-pyridiniminyl]-1,2-benzisoxazole hydrobromide], the IC50 (Acetylcholinesterase) is reported as 0.65 µM.

`c1ccc(CCn2ccc(=Nc3noc4ccccc34)cc2)cc1` [3-[1-(2-Phenylethyl)-N-4(1H)-pyridiniminyl]-1,2-benzisoxazole hydrobromide] gave an IC50 (Monoamine Oxidase B) of 15.9 µM and an IC50 (Monoamine Oxidase A) of 3 µM.

Molecule `COc1ccc2c(N=c3ccn(Cc4ccccc4)cc3)noc2c1` [6-Methoxy-3-[1-phenylmethyl-N-4(1H)-pyridiniminyl]-1,2-benzisoxazole hydrobromide] has an IC50 (Acetylcholinesterase) of 0.09 µM, an IC50 (Monoamine Oxidase B) of 25.2 µM and an IC50 (Monoamine Oxidase A) of 3 µM.

`c1ccc(Cn2ccc(=Nc3noc4ccccc34)cc2)cc1` [3-[1-Phenylmethyl-N-4(1H)-pyridiniminyl]-1,2-benzisoxazole hydrobromide] gave an IC50 (Acetylcholinesterase) of 0.28 µM, an IC50 (Monoamine Oxidase B) of 33.7 µM and an IC50 (Monoamine Oxidase A) of 9 µM.

`Fc1ccc(Cn2ccc(=Nc3noc4ccccc34)cc2)cc1` [3-[1-(4-Fluorophenyl)methyl-N-4(1H)-pyridiniminyl]-1,2-benzisoxazole hydrobromide] showed an IC50 (Acetylcholinesterase; rat corpora striata homogenate, pH 7.2, acetylthiocholine 5 mM final, 10 min preincubation at 37° C., log-probit, read-out: Inhibition of Acetylcholinesterase Activity IC50) of 0.44 µM.

For `CCCn1ccc(=Nc2noc3cc(Cl)ccc23)cc1` [6-Chloro-3-]1-propyl-N-4(1H)pyridiniminyl]-1,2-benzisoxazole hydrochloride], the IC50 (Monoamine Oxidase B) was 27.2 µM and the IC50 (Monoamine Oxidase A) was 1.65 µM.

Source: patent US5948798A, “Pyridiniminyl-1,2-benzisoxazoles and -benzisothiazoles” (Hoechst Marion Roussel, Inc., priority 1997, dated 1999)
